Key:
[1] = tested on: inducible nitric oxide synthase (iNOS); assay: In vivo iNOS mRNA expression (quantitative PCR); design: species or system Swiss Webster male mice; settings: mice, oral gavage; within 8 hours following treatment, then returned to control levels; normalized to 18S rRNA; FIG. 10A
Procedure: To determine gene induction patterns over time, twenty four Swiss Webster male mice (30-32 g) were obtained from Simonsen, Inc. and treated by oral gavage with a 4 ml/kg volume of either 0.5% carboxymethyl cellulose (CMC; Sigma-Aldrich, St. Louis Mo.) (0 mg/kg/day) or […] compound B (25 mg/ml in 0.5% CMC) (100 mg/kg). At 4, 8, 16, 24, 48, or 72 hours after the final dose, animals were anesthetized with isoflurane. The mice were then sacrificed and tissue samples of kidney, liver, brain, lung, and heart were isolated and stored in RNALATER solution (Ambion) at −80° C.
To investigate the dose response of compounds of the present invention, twelve Swiss Webster male mice (30-32 g) (obtained from Simonsen, Inc., Gilroy Calif.) were treated by oral gavage once per day for 4 days with a 4 ml/kg volume of either 0.5% carboxymethyl cellulose (CMC; Sigma-Aldrich, St. Louis Mo.), compound D (25 mg/ml in 0.5% CMC) (100 mg/kg/day), or compound B (7.5 and 25 mg/ml in 0.5% CMC) (30 and 100 mg/kg/day, respectively). Four hours after the final dose, animals were anesthetized, sacrificed, and approximately 150 mg of liver and each kidney were isolated and stored in RNALATER solution (Ambion) at −20° C.
Hypertension is a risk factor for diabetes and disorders and diseases associated with diabetes. The effects of compounds of the present invention on regulation of blood pressure were examined as follows. Animals were treated with compound B or compound D and RNA samples were prepared as described above in Example 4. […] Analysis of the relative level of gene expression was performed by quantitative PCR using a FASTSTART DNA MASTER SYBR GREEN I kit (Roche) and gene-specific primers, using a LIGHTCYCLER system (Roche), according to manufacturer's instructions. […]
The relative level of 18S ribosomal RNA gene expression was measured as a control. Quantitative PCR was performed using a QUANTITECT SYBR GREEN PCR kit (Qiagen) and gene-specific primers, using a LIGHTCYCLER system (Roche), according to manufacturer's instructions. […]

GluT-1 = GluT-1 protein levels in SCC-25 cells (Western blot); type: cell-based, Human; settings: 10 and 25 μM, 16 hours, FIG. 1B
Procedure: Human SSC-25 (squamous cell carcinoma) or rat H9c2 (ventricular cardiomyocyte) cells were grown to confluence in 100 mm culture dishes at 37° C., 10% CO2 in DMEM with 10% fetal calf serum. Cells were then washed twice with PBS and incubated with vehicle control, compound D (10 and 25 μM), or compound C (5, 10, and 20 μM) for 16 hours. Plates were placed on ice, culture supernatant was removed, and lysis buffer-1 (LB-1: 10 mM Tris pH 7.4, 1 mM EDTA, 150 mM sodium chloride, 0.5% IGEPAL) was added. Cell lysates were harvested by scraping, incubated for 15 minutes on ice, and then centrifuged at 3000×g for 5 minutes at 4° C. The supernatant, which represents the cytosolic fraction, was collected and cytosolic proteins were separated under reducing conditions using SDS-polyacrylamide gel electrophoresis (SDS-PAGE) with equal amounts of protein loaded per lane.
SDS-PAGE was conducted at 150 V for 2 hours, after which the proteins were transferred to a PVDF membrane at 400 mA for 1.5 hours at 4° C. The membrane was incubated in blocking buffer for 2 hours or overnight and washed once with T-TBS prior to addition of anti-GluT-1 antibody (Alpha Diagnostics) diluted to working concentration in blocking buffer. […]

HIF-1α = HIF-1α stabilization in cells, nuclear fraction Western blot; type: cell-based, Human; settings: various cell types, overnight incubation, 20% O2; FIG. 12A
Procedure: Stabilization of HIFα using compounds and methods of the present invention was examined as follows. Human cells derived from adenovirus-transformed fetal kidney epithelium (293A), cervical epithelial adenocarcinoma (HeLa), hepatocellular carcinoma (Hep3B), squamous carcinoma (SSC-25), and lung fibroblast (HLF) (see, e.g., American Type Culture Collection, Manassas Va.; and Qbiogene, Carlsbad Calif.) were separately seeded into 100 mm culture dishes and grown at 37° C., 20% O2, 10% CO2 in media as follows: HeLa cells in Dulbecco's Modification of Eagle's Medium (DMEM), 2% fetal bovine serum (FBS); HLF cells in DMEM, 10%FBS; 293A cells in DMEM, 5%FBS; and Hep3B cells in Minimal Essential Medium (MEM), Earle's BSS (Mediatech Inc., Herndon Va.), 2 mM L-glutamine, 0.1 mM non-essential amino acids, 1 mM sodium pyruvate, 10% FBS. When cell layers reached confluence, the media was replaced with OPTI-MEM media (Invitrogen Life Technologies, Carlsbad Calif.) and cell layers were incubated for approximately 24 hours in 20% O2, 10% CO2 at 37° C. Compound of the invention (one of compounds B, F, G, and H) or DMSO (0.5 to 1%) was then added to existing medium, and incubation was continued overnight.
Following incubation, the media was removed, centrifuged, and stored for analysis. […]

## O=C(O)c1c[nH]c2c(ccc3cccnc32)c1=O [compound D, 4-Oxo-1,4-dihydro-[1,10]phenanthroline-3-carboxylic acid]
[1]
  expression of the gene encoding iNOS: increased
GluT-1
  protein levels of GluT-1: increased
HIF-1α
  HIFα stabilization (Western blot): stabilized HIFα in a dose-dependent manner

Source: patent publication US8124582B2, “Treatment of diabetes” (FibroGen, Inc., priority 2002, dated 2012)
